From ChEMBL document CHEMBL1201862, “PubChem BioAssay data set” (2004)
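Tested at 5 concentrations; 48 h exposure; 96-well plates; endpoints linearly interpolated, else capped at highest concentration. At the GI50, growth is halved.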 The source made the active and inactive calls. Rule as the data show it: active = GI50 up to about 1.1 µM and inactive = higher.

Columns and labels:
Assay in all cases: NCI anticancer screen, dose series, 48 h
SW-620 = system: SW-620
LOX IMVI = system: LOX IMVI
CAKI-1 = system: CAKI-1
CCRF-CEM = system: CCRF-CEM
UO-31 = system: UO-31
SNB-78 = system: SNB-78
OVCAR-4 = system: OVCAR-4
IGROV-1 = system: IGROV-1
HCT-116 = system: HCT-116
SK-MEL-5 = system: SK-MEL-5
Malme-3M = system: Malme-3M
SNB-19 = system: SNB-19
A498 = system: A498
HCC 2998 = system: HCC 2998
SR = system: SR
MDA-MB-231 = system: MDA-MB-231
Hs-578T = system: Hs-578T
MDA-MB-435 = system: MDA-MB-435
MCF7 = system: MCF7
DU-145 = system: DU-145

Measured: GI50

Cc1cc(C)nc(NS(=O)(=O)c2ccc(Nc3c4ccccc4nc4c(C(=O)Nc5ccc(S(N)(=O)=O)cc5)cccc34)cc2)n1
inactive: SW-620 > 100 µM | LOX IMVI 75.9 µM | CAKI-1 > 100 µM | CCRF-CEM > 100 µM | UO-31 37 µM | SNB-78 > 100 µM | OVCAR-4 85.5 µM | IGROV-1 > 100 µM | HCT-116 83.8 µM | SK-MEL-5 > 100 µM | Malme-3M > 100 µM | SNB-19 47 µM | A498 43.3 µM

CC(Oc1ccc(OCC2CCCCC2)cc1)C(=O)O (stereo not given)
inactive: SW-620 > 100 µM | LOX IMVI > 100 µM | CCRF-CEM > 100 µM | UO-31 > 100 µM | SNB-78 > 100 µM | OVCAR-4 > 100 µM | IGROV-1 > 100 µM | HCT-116 > 100 µM | SK-MEL-5 > 100 µM | Malme-3M > 100 µM

Cc1ccc(Sc2ccccc2N)cc1
inactive: SW-620 49 µM | LOX IMVI 36.8 µM | CAKI-1 21.6 µM | CCRF-CEM 23.2 µM | UO-31 12.8 µM | SNB-78 84.7 µM | OVCAR-4 46.9 µM | HCC 2998 40.8 µM | IGROV-1 37.7 µM | HCT-116 35.6 µM | SK-MEL-5 20.7 µM | Malme-3M 46.5 µM | SNB-19 38.6 µM | A498 30.8 µM

CCc1cccc(C(C)C)c1NC(=O)CCl
inactive: SW-620 > 100 µM | LOX IMVI 80.7 µM | CAKI-1 > 100 µM | SR 71.4 µM | CCRF-CEM 37.1 µM | UO-31 > 100 µM | SNB-78 > 100 µM | IGROV-1 > 100 µM | HCT-116 > 100 µM | Malme-3M > 100 µM | SNB-19 28.1 µM

Cc1ccccc1NC(=O)C(=O)C(C(=O)c1ccccc1F)C1OC(=O)c2ccccc21 (stereo not given)
inactive: SW-620 34.9 µM | LOX IMVI 16 µM | CAKI-1 21.1 µM | CCRF-CEM 10.6 µM | UO-31 15.8 µM | SNB-78 13.3 µM | OVCAR-4 18.4 µM | HCC 2998 11.5 µM | HCT-116 15 µM | SK-MEL-5 22.4 µM | Malme-3M 18.8 µM | SNB-19 10.1 µM | A498 45.8 µM

CC(O)C(NC(=O)c1ccccc1)C(=O)N(Cc1ccccc1)Cc1ccccc1 (stereo not given)
inactive: SW-620 > 100 µM | LOX IMVI > 100 µM | CAKI-1 18.2 µM | CCRF-CEM > 100 µM | UO-31 > 100 µM | SNB-78 > 100 µM | OVCAR-4 > 100 µM | HCC 2998 > 100 µM | IGROV-1 > 100 µM | SK-MEL-5 60 µM | Malme-3M > 100 µM | SNB-19 > 100 µM | A498 69.3 µM

c1ccc(C(c2ccccc2)c2ccncc2)cc1
inactive: SW-620 > 100 µM | LOX IMVI > 100 µM | CAKI-1 > 100 µM | CCRF-CEM > 100 µM | UO-31 69.5 µM | SNB-78 > 100 µM | OVCAR-4 > 100 µM | HCC 2998 61.7 µM | IGROV-1 > 100 µM | HCT-116 > 100 µM | SK-MEL-5 > 100 µM | Malme-3M > 100 µM | SNB-19 > 100 µM | A498 > 100 µM

COC1C=C(NCC2(CO)CCC2)N=C(N)N1 (stereo not given)
inactive: SW-620 > 100 µM | LOX IMVI > 100 µM | CAKI-1 > 100 µM | MDA-MB-231 56.6 µM | SR > 100 µM | CCRF-CEM > 100 µM | UO-31 > 100 µM | Hs-578T > 100 µM | OVCAR-4 > 100 µM | HCC 2998 > 100 µM | IGROV-1 > 100 µM | MDA-MB-435 > 100 µM | HCT-116 > 100 µM | SK-MEL-5 > 100 µM | Malme-3M > 100 µM | SNB-19 > 100 µM | A498 95.1 µM | MCF7 95.1 µM | DU-145 > 100 µM

COc1c(O)c(O)c2c(c1O)C(=O)c1cc(C)cc(O)c1C2=O
inactive: SW-620 40 µM | LOX IMVI 24.1 µM | CAKI-1 37.9 µM | MDA-MB-231 12.2 µM | SR 31.6 µM | CCRF-CEM 33.3 µM | UO-31 23.1 µM | Hs-578T 19.6 µM | OVCAR-4 14.4 µM | HCC 2998 75.2 µM | IGROV-1 13.2 µM | MDA-MB-435 53.8 µM | HCT-116 32.8 µM | SK-MEL-5 29.9 µM | Malme-3M 8.91 µM | SNB-19 65.3 µM | A498 49.2 µM | MCF7 44.8 µM | DU-145 77.1 µM

OC1(C(Sc2ccccc2)Sc2ccccc2)CCCCCC1
inactive: SW-620 26.2 µM | LOX IMVI 19.3 µM | CAKI-1 12.2 µM | SR 20.8 µM | CCRF-CEM 25.2 µM | UO-31 3.13 µM | SNB-78 74.1 µM | OVCAR-4 6.19 µM | HCT-116 27.8 µM | SK-MEL-5 16.1 µM | SNB-19 14.1 µM | A498 34 µM

NC(Cn1ccc(=O)c(O)c1)C(=O)O (stereo not given) [MIMOSINE]
inactive: SW-620 > 100 µM | LOX IMVI > 100 µM | CAKI-1 > 100 µM | MDA-MB-231 > 100 µM | SR 49.4 µM | CCRF-CEM 33.7 µM | UO-31 > 100 µM | Hs-578T > 100 µM | OVCAR-4 > 100 µM | HCC 2998 > 100 µM | IGROV-1 > 100 µM | MDA-MB-435 > 100 µM | HCT-116 > 100 µM | SK-MEL-5 > 100 µM | Malme-3M 54.8 µM | SNB-19 > 100 µM | A498 > 100 µM | MCF7 > 100 µM | DU-145 > 100 µM

CC1(C)CC2=NOS3=C2C(=NO3)C1c1ccccn1 (stereo not given)
inactive: SW-620 69.5 µM | LOX IMVI 36.1 µM | CAKI-1 > 100 µM | MDA-MB-231 > 100 µM | SR 39.3 µM | CCRF-CEM 29 µM | UO-31 61.7 µM | Hs-578T > 100 µM | OVCAR-4 > 100 µM | HCC 2998 > 100 µM | IGROV-1 29.6 µM | MDA-MB-435 18.6 µM | HCT-116 48.8 µM | SK-MEL-5 17.8 µM | Malme-3M 46.9 µM | SNB-19 > 100 µM | A498 > 100 µM | MCF7 > 100 µM | DU-145 > 100 µM

O=C(Nc1ccccc1)c1cc(S(=O)(=O)N2CCNNC2=O)c(S)cc1Cl
inactive: SW-620 33 µM | LOX IMVI 43.7 µM | CAKI-1 > 100 µM | MDA-MB-231 39 µM | SR 95.3 µM | CCRF-CEM 71.9 µM | UO-31 > 100 µM | Hs-578T > 100 µM | OVCAR-4 > 100 µM | HCC 2998 > 100 µM | IGROV-1 > 100 µM | MDA-MB-435 > 100 µM | HCT-116 40.1 µM | SK-MEL-5 > 100 µM | Malme-3M 56.1 µM | SNB-19 > 100 µM | A498 > 100 µM | MCF7 > 100 µM | DU-145 90.4 µM
